The values below come from US12583868B2, “JAK inhibitors and methods for synthesizing and using thereof” (GALDERMA HOLDING SA, priority 2020, dated 2026).

Where two headings read alike, the source gives them in different places.

One data set in a line: SF logD. The format is physicochemical.
A short description of another data set: iv PK mice. The following applies: female, mouse, in vivo. An excerpt:
Other studies including, but not limited to, CaCO2 permeability, metabolite profiling in human microsomes (Syneos 7007703.SA.186) and in human hepatocytes (Syneos 7007703.SA.185), metabolite M3b structural elucidation (Syneos 7007703.SA.186), mouse iv female (ODS CFH-1798), mouse iv+ABT females (ODS CFH 1799), mouse topical d1,d10 (ODS Study Number: NBK39-32, 12 Sep. 2019, ELN Bioanalysis study: NBK156-79), rat iv (Pharmaron PH-DMPK-GAL-20-002), dog topical d1, d10 (CRL FY19.085) and minipig topical PK dl, d7 (Pharmaron 92404-19-914) are also conducted using the standard protocols known in the art.

A further data set is described as follows: pKa. It is filed as physicochemical.
Data set [1] in a line: Intrinsic clearance in hepatocytes, human. It is filed as in vitro ADME. The following applies: 2.5 μM. Here is the method:
(§1) The intrinsic clearance was assessed in cryopreserved Hepatocytes obtained by Human livers donors of mix gender pooled together, male balb-c mouse, male Wistar Han rats and male Göttingen minipig, by looking at the parent compound disappearance. The incubations were performed using a final concentration of viable cells of 1 million/ml (viability above 70%) and test item of 2.5 μM. Incubations were followed up to 2 h. Aliquotes were withdrawn at different time points and reaction quenched with acetonitrile. After centrifugation the supernatant was analyzed by HPLC/MS to quantify the remaining amount of parent in comparison with time 0. The clearance was calculated by fitting the log of the percentage remaining with Graphpad Prism ver.7.

A short description of the next data set: Kinetic aq sol. The format is physicochemical.
A short description of data set [2]: Intrinsic clearance in hepatocytes, rat. It is filed as in vitro ADME, male Wistar Han rats. The following applies: 2.5 μM. The protocol:
as §1

In data set [3] the test system is IL-6 induced pSTAT3 in TF-1 cells. In words: In vitro cellular pSTAT3 assay, IL-6 stimulated TF-1 cells. It is filed as cell-based. The conditions noted are these: Homo sapiens. Here is the method: . The flasks were incubated overnight at 37° C., 5% CO2 then seeded in 96 well plates (TPP) at 150000 cells/well in 25 μL. Cells were treated with 5 IL/well of serially diluted compounds in DMSO (final DMSO concentration of 0.1%) and incubated for 30 min at 37° C. IL-6 (6 IL/well, 100 ng/ml as a final concentration in Opti-MEM, Thermofisher, PHC0066) was added to the cell plates and followed by a 30-min incubation at 37° C. Next, cells were lysed by adding 12 μl/well of 4× supplemented lysis buffer, incubated at 4° C. for 30 min under agitation. The samples were processed for the pSTAT3 detection as described by the manufacturer (MSD) with 25 μl of non-diluted cell lysates tested. Compounds were tested in simplicates over 10 three-step dilutions in order to determine their IC50 values.

Data set [4] can be described thus: Protein binding analysis (RED), minipig plasma. The format is in vitro ADME. The conditions noted are these: male, Göttingen, pH 7.4, read-out: minipig FU. The protocol: (§2) The protein binding was assessed in plasma of Human, male balb-c mice, male Wistar Han rat, male Göttingen minipig by rapid equilibrium dialysis (RED) devices. After the plasma and buffer phosphate 50 mM pH7.4 were equilibrated at 37° C., the compound was added to plasma to reach a final concentration of 5 μM. An aliquot of plasma was withdrawn immediately. Equilibration under mild agitation was continued for 4 h. The plasma and buffer were sampled and samples were quenched with 4 volumes of acetonitrile and centrifuged. Supernatant was quantified in HPLC/MS/MS to calculate the recovery and the percentage of compound dissolved in the buffer (unbound) and bound to plasma proteins.

Data set [5] can be described thus: Protein binding analysis (RED), human plasma. The conditions noted are these: 5 μM. The format is in vitro ADME. Here is the method:
as §2

For another data set, the system named is 44 targets. The format is binding. Here is the method: An in vitro pharmacology assay was conducted to assess the capability of the compounds to interact with different pharmacological targets when tested at 10 μM in different binding and enzyme/uptake assays. The included targets are indicative of potential effects in major organs and drug-drug interactions.
Compound binding was calculated as a % inhibition of the binding of a radioactively labelled ligand specific for each target. […] […].

The target in another data set is T1, hERG channel (Homo sapiens, UniProt Q12809).
T1 construct: expressed in transfected cells; host or cells: CHO-K1
T1 sequence (Q12809 whole entry): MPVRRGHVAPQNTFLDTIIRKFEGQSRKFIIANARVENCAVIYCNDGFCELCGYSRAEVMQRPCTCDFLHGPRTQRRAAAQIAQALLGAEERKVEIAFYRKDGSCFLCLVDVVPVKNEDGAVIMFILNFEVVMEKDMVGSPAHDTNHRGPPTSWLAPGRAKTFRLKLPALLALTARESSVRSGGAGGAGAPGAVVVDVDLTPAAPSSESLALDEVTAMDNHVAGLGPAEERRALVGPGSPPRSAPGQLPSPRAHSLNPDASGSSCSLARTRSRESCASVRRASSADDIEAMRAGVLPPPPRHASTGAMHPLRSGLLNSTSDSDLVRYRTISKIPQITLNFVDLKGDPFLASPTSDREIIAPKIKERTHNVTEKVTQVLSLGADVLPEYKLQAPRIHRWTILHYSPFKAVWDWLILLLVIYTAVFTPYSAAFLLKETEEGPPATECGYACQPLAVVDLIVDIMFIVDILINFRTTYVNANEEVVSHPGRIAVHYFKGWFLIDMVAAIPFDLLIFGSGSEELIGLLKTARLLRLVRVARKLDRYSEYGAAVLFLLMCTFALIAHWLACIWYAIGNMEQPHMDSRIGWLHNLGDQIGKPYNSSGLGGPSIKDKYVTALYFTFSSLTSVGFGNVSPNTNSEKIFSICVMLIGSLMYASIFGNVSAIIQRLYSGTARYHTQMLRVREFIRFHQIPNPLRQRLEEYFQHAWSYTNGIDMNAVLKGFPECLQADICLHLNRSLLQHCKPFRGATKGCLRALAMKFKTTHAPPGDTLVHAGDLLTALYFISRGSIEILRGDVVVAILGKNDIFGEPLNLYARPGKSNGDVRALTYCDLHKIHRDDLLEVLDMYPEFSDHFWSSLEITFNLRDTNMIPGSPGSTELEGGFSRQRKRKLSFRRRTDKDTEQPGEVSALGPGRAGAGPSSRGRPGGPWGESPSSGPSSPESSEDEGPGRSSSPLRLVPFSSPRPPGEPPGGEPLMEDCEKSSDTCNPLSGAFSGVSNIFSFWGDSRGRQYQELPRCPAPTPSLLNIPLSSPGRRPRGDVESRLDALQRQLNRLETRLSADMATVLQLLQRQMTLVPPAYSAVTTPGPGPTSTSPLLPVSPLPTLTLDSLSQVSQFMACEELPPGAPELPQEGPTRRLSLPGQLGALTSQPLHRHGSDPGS
In words: In vitro hERG channel whole cell patch clamp. The following applies: CHO-K1 cells expressing hERG. The format is cell-based. The protocol: Blockade of the delayed rectifier potassium current (IKr) encoded by hERG gene (human ether a go go-related gene) can lead to QT interval prolongation and is therefore investigated as part of the cardiac risk assessment. This channel is critical for the repolarisation of the cardiac membrane. The effect of the compounds on IKr was assessed by whole cell patch clamp in stably transfected CHO-K1 cells expressing hERG (Human Ether-a-go-go Related Gene) channel following superfusion at different concentrations up to 30 μM.
In general terms: The hERG channel carries a current that helps repolarise heart muscle cells.

For the next data set, the system named is 3T3 murine fibroblasts. The experiment in a line: Phototoxicity (Neutral red uptake). It is filed as cell-based. The following applies: 3T3 fibroblasts, 7 J/cm2 UVA/UVB. Here is the method: Phototoxicity was evaluated in 3T3 murine fibroblasts. Cells were incubated with different concentrations of test compounds. One plate was then exposed to a dose of 7 J/cm2 (UVA/UVB mimicking usual solar exposure) whereas the other plate was kept in the dark. The treatment medium was then replaced with culture medium and after 24 h cell viability was determined by Neutral red uptake. Concentration leading to 50% decrease of viability was calculated in the absence and in the presence of irradiation. The PIF (photo irritation factor) ratio was then calculated: […]).

The target in the next data set is T2, CYP3A4 (Homo sapiens, UniProt P08684).
T2 construct: Human pooled liver microsomes of mixed gender (mainly Caucasian); from tissue; host or cells: pooled human liver microsomes
T2 sequence (P08684 2-503): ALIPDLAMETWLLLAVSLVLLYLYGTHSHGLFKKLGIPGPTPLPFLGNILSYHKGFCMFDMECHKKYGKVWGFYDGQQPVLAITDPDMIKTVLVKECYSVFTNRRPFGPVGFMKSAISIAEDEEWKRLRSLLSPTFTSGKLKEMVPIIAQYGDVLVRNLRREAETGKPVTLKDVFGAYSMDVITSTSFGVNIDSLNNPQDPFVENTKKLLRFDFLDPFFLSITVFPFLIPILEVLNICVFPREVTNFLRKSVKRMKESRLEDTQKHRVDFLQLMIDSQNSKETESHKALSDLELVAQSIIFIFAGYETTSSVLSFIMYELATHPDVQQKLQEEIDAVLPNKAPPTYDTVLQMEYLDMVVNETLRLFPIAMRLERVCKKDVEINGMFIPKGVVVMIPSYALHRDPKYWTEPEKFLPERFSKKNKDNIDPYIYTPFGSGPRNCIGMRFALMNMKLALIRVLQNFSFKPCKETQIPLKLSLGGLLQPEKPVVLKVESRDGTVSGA
The experiment in a line: CYP3A inhibition in human liver microsomes. The format is in vitro ADME. The conditions noted are these: testosterone, CRL data, read-out: IC50 CYP3A4 testo.

The next data set relates to p-STAT3Y705 in skin. The experiment in a line: In vivo pharmacodynamy model: IL-6 induced Phospho-STAT3, topical. The conditions noted are these: topical 1 mM, PG/EtOH 3/7. Set-up: species or system BALB/c ByJ Rj mice; PD/IL6 mouse top @1 mM % vs Tofa: unit not given here.
A short description of data set [6]: Protein binding analysis (RED), mouse plasma. The format is in vitro ADME, male balb-c mice. The conditions noted are these: 5 μM. The protocol: as §2

In the case of `O=S(=O)(N[C@H]1C[C@@H](N2CCOc3cnc4[nH]ccc4c32)C1)C1CN(C2CC2)C1` [Compound E, 1-Cyclopropyl-N-((cis)-3-(2,3-dihydropyrrolo[3′,2′:5,6]pyrido[3,4-b][1,4]oxazin-1(7H)-yl)cyclobutyl)azetidine-3-sulfonamide], the logD in the data set “SF logD” was 2.1. The molecule also came in with a Vd in “iv PK mice” of 2.6 L/kg. In addition, the clearance in the data set “iv PK mice” (read-out: iv PK mice: Cl) stood at 140 mL/min/kg. In addition, in “iv PK mice” (read-out: iv PK mice: t½), the half-life was 26.4 min. This molecule also returned a pKa in the data set “pKa” of 6.1. For the same molecule, the “Intr. Clear. h heps” value in data set [1] is 6.5 microL/min/10 6 cells. Further, the Kinetic aq sol in “Kinetic aq sol” is reported as 225/ND/TBD microM. In addition, the “Intr. Clear. rheps” value in data set [2] stood at 40 microL/min/10 6 cells. The IC50 in data set [3] (TF-1, cellular assay IL6, read-out: Free IC50) was found to be 43 nM; in [3] (TF-1 cells, IL-6 100 ng/ml, read-out: Cellular Assay: IC50 IL6) it was 9.9 nM; at hERG channel, 15000 nM; at CYP3A4, 5000 nM. Further, in data set [4], the fraction unbound at 4 h, 5 μM is 0.32. This molecule registered a hFU in [5] of 23%. Besides, the “Safety panel (Cerep): 44 targets % inh @10 microM Nb of targets > 50% inh” value in the data set on 44 targets was 2/44. In addition, in the data set on 44 targets (10 μM), the “Safety panel (Cerep): targets > 50% inh” value was “(H2 (antago)-alpha2A (antago))”. For the same molecule, in the data set with 3T3 murine fibroblasts, the Phototox entry is “Neg/Neg”. Moreover, in the data set with p-STAT3Y705 in skin, the “PD/IL6 mouse top @1 mM % inh vs vehicle” value is 63%. For the same molecule, in the data set on p-STAT3Y705 in skin, the “PD/IL6 mouse top @1 mM % vs Tofa” value amounted to 0.97. The molecule also had a mFU in [6] of 28%.

What is called logD is the decadic logarithm of the distribution of all forms, ionised or not, between an organic phase and buffer at a given pH. What is called Vd is a proportionality between amount in the body and measured concentration, not a real space. A word on the pKa: it is the pH at which an ionisable group is half protonated. As usually defined, the IC50 is the midpoint of a concentration-inhibition curve.
